Experimental data reported in US20150164899A1, “INHIBITION OF ADAPTOR ASSOCIATED KINASE 1 FOR THE TREATMENT OF PAIN” (priority 2012, published 2015).
Like-named read-outs stand apart in the source and are kept apart here.

Biological target: T1, AAK1 (full length human) in transfected HEK293F cells (Homo sapiens, UniProt Q2M2I8)
T1 construct: expressed in transfected cells; host or cells: HEK293F
Assay: HEK281 cell-based assay (phospho-mu2 Western blot)
Conditions: HEK281 cell-based assay, read-out: CBA IC50
Description: HEK293F cells were cultured in media containing DMEM (Gibco, cat. #11965), 10% FBS (SAFC Biosciences, cat. #12103C), 1×GPS (glutamine, penicillin and streptomycin). On day one, cells were plated on a 10 cm dish so that they are ˜80% confluent at time of transfection. Roughly 12 million cells were in a 10 cm dish at time of transfection. On day two, each dish was transfected with 48 ug DNA and 144 ul Lipofectamine 2000 (Invitrogen, cat.#11668-019). The DNA was comprised of a mixture (per 10 cm dish) containing 3 ug AAK1/HA/pIRES (full length human, NCBI accession no. NP_055726.2), 45 μg Flag/AP2MI/pcDNA (full length human), and 1.5 ml OPTI-MEM. The Lipofectamine 2000 is made up of a mixture (per 10 cm dish) containing 144 μl Lipofectamine 2000 and 1.5 ml OPTI-MEM. Each mixture was transferred to individual 15 ml tubes and incubated at RT for 5 minutes, and then the two mixes were combined and incubated at RT for 20 minutes. Growth media was then aspirated from each 10 cm plate and replaced with 10 ml of DMEM+10% FBS (no GPS). Finally, 3 ml DNA/Lipofectamine mix was added to each 10 cm dish and mix gently followed by incubate of plate overnight at 37° C. and 5% CO2.
On day three, compounds were diluted in 100% DMSO at 1000× final concentration, followed by 3-fold serial dilutions for a total of 5 concentrations tested. Four compounds were tested per 10 cm dish. One ul of each compound dilution was then pipetted into a deep-well, 96-well plate, followed by addition of 500 μl DMEM+0.5% FBS into each well for a 2× final concentration of each compound. Cells were resuspended in a 10 cm dish by simple pipetting (HEK293 cells come off the plate that easy at this point) and then transferred to a 50 ml conical tube and pelleted by centrifugation at 1000 rpm for 5 min. Cell pellets were then resuspended in 2.75 ml DMEM+0.5% FBS per 10 cm dish and 100 μl of cell suspension transferred into each well of 96-well TC plate. Finally, 100 μl of 2× compound diluted in DMEM+0.5% FBS was then added into wells containing cell suspension for a 1× final concentration. Plates were then incubated at 37° C. and 5% CO2 for 3 hours followed by transferring of cell suspensions from each well into 12-tube PCR strips. The PCR strips were spun in a tip rack at 1000 rpm for 5 minutes to pellet cells and media was then removed by pipetting without disturbing the cell pellet.
To prepare for Western Blot analysis, cell pellets were resuspend in 40 ul 1×LDS-PAGE sample buffer (Invitrogen, cat.# NP0008)+2× Halt phophatase and protease inhibitor cocktail (Thermo Scientific, cat.#1861284), followed by sonicating each with microtip sonicator set at 5 for 8-10 seconds. Five ul of 10× NuPage Sample Reducing Agent (with […]) was to each sample followed by heat denaturing at 70 C. for 10 min on PCR machine. A total of 10 μl per sample was loaded into each lane of a 4-20% Tris-Glycine Criterion 26-well gel (Biorad, cat.#345-0034) for the phospho-mu2 blot and 10 μl per lane in a 4-12% Bis-Tris (+MES buffer) NuPAGE 26-well gel (Invitrogen, cat.# WG1403BX10) for the mu2 blot. For controls, 2 ng of phospho-mu2 or 20 ng mu2/Flag proteins were loaded in the last well of each gel. After SDS-PAGE, samples on each gel were transferred to PVDF membrane using an iBlot and membranes were blocked for one hour in TBST+5% milk, followed by wash 3× for 5-10 min with TBST. Criterion gels were probed with rabbit anti-phospho-mu2 (1:5000; a rabbit polyclonal antibody produced by New England Peptide and affinity purified at Lexicon) in TBST+5% BSA, whereas, NuPAGE gels were probed with mouse anti-Flag (1:500; Sigma, cat.# F1804) in TBST+5% milk, and these primary antibodies were incubated overnight at 4° C. on a rocker.

[1] = pyrazolo[1,5-a]pyrimidine-based inhibitors
[2] = Table 1 imidazo[1,2-b]pyridazines

T1 sequence (Q2M2I8 1-863 isoform Q2M2I8-2): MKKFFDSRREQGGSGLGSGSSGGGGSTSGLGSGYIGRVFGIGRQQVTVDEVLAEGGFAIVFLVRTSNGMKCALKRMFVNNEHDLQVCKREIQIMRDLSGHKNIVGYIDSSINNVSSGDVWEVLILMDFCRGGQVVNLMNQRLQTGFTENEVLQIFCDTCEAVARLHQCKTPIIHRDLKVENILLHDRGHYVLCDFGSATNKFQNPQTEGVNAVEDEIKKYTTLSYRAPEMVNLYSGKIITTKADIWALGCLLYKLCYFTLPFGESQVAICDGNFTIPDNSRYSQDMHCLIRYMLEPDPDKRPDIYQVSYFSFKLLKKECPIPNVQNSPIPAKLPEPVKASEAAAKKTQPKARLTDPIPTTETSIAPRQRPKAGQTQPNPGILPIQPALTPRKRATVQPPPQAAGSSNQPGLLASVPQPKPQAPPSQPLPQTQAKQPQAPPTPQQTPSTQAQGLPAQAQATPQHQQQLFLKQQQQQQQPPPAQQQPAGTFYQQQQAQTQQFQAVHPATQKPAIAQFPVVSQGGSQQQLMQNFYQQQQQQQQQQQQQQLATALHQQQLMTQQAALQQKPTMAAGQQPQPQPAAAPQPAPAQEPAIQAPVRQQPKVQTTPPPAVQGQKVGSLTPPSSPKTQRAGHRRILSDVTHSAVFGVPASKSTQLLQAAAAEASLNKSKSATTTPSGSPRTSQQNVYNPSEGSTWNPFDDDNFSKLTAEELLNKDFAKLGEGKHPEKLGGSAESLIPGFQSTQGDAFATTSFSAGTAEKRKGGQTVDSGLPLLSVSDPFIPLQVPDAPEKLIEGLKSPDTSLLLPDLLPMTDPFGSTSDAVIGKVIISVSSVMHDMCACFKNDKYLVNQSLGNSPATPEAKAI

Row | IC50 [1] [nM] | IC50 [2] [nM] | Compound
1 | ≤ 1000 | – | CC(C)(C)OC(=O)N1CCC[C@H]1CNc1ccn2ncc(-c3ccc(C(N)=O)cc3)c2n1
2 | ≤ 10 | – | CNC(=O)c1ccc(-c2cnn3ccc(NCCN(C)C(=O)OC(C)C)nc23)cc1
3 | ≤ 100 | – | COc1cnccc1-c1cnn2ccc(NCCOC(C)(C)C)nc12
4 | ≤ 100 | – | CC(C)(C)OC(=O)N1CCC[C@H]1CNc1ccn2ncc(-c3ccccc3)c2n1
5 | ≤ 10 | – | CNC(=O)c1ccc(-c2cnn3ccc(NCCN(C)C(=O)OC(C)(C)C)nc23)cc1
6 | ≤ 100 | – | CCCCNc1ccn2ncc(-c3ccc(C(=O)NCCN)cc3)c2n1
7 | – | ≤ 100 | CN(CCNc1ccc2ncc(-c3ccc(C#N)cc3)n2n1)C(=O)OC(C)(C)C
8 | ≤ 10 | – | NCc1ccc(-c2cnn3ccc(NCCc4ccccc4OC(F)(F)F)nc23)cc1
9 | ≤ 100 | – | CCc1ccccc1-c1cnn2ccc(NC[C@@H]3CCCN3C(=O)OC(C)(C)C)nc12
10 | ≤ 100 | – | NCc1ccc(-c2cnn3ccc(NCCCOC4CCCC4)nc23)cc1
11 | ≤ 100 | – | CC(C)(C)OC(=O)N1CCC[C@H]1CNc1ccn2ncc(I)c2n1
12 | ≤ 100 | – | CC(C)(C)COCCNc1ccn2ncc(-c3ccc(CN)cc3)c2n1
13 | ≤ 1000 | – | CC(C)(C)CCNc1ccn2ncc(-c3ccc(C(=O)NCCN)cc3)c2n1
14 | ≤ 10 | – | COc1cnccc1-c1cnn2ccc(NCCN(C)C(=O)OC(C)(C)C)nc12
15 | – | ≤ 100 | CN(CCNc1ccc2ncc(-c3ccccc3)n2n1)C(=O)OC(C)(C)C
16 | ≤ 100 | – | CCOC(=O)N(C)CCNc1ccn2ncc(-c3ccc(C(=O)NC)cc3)c2n1
17 | ≤ 100 | – | CC(C)(C)OCCNc1ccn2ncc(-c3ccc(CN)cc3)c2n1
18 | ≤ 100 | – | CCCCNc1ccn2ncc(-c3ccc(C(=O)NCCNC)cc3)c2n1

Row | IC50 [1] [nM] | IC50 [2] [nM] | Compound
19 | ≤ 10 | – | CC(C)OC(=O)N(C)CCNc1ccn2ncc(-c3ccc(C(N)=O)cc3)c2n1
20 | – | ≤ 100 | COc1cccc(CCNc2ccc3ncc(-c4ccc(C(N)=O)cc4)n3n2)c1
21 | ≤ 100 | – | NCc1ccc(-c2cnn3ccc(NCCOC4CCCC4)nc23)cc1
22 | ≤ 10 | – | COc1cnccc1-c1cnn2ccc(NCCN(C)C(=O)OC(C)C)nc12
23 | ≤ 100 | – | CCCCNc1ccn2ncc(-c3ccc(CN)cc3)c2n1
24 | ≤ 100 | – | COc1ccccc1-c1cnn2ccc(NC[C@@H]3CCCN3C(=O)NC(C)(C)C)nc12
25 | ≤ 1000 | – | CNC(=O)c1ccc(-c2cnn3ccc(NCCN(C)C(=O)OCC(C)C)nc23)cc1
26 | ≤ 1000 | – | COCCNc1ccn2ncc(-c3ccc(C(=O)NCCNC(=O)OC(C)(C)C)cc3)c2n1
27 | ≤ 1000 | – | COCCNc1ccn2ncc(-c3ccc(C(=O)NCCN)cc3)c2n1
28 | ≤ 100 | – | CNCCNC(=O)c1ccc(-c2cnn3ccc(NCCN(C)C(=O)OC(C)C)nc23)cc1
29 | ≤ 10 | – | CN(CCNc1ccn2ncc(-c3ccc(C(N)=O)cc3)c2n1)C(=O)OC(C)(C)C
30 | ≤ 10 | – | CC(C)OC(=O)N(C)CCNc1ccn2ncc(-c3ccc(C4CCCN4)cc3)c2n1 (stereo not shown)
31 | ≤ 100 | – | CC(C)OC(=O)N(C)CCNc1ccn2ncc(-c3ccc(CN)cc3)c2n1
32 | ≤ 1000 | – | COCCNc1ccn2ncc(-c3ccccc3)c2n1
33 | – | ≤ 100 | CC(C)(C)OCCNc1ccc2ncc(-c3ccc(C(N)=O)cc3)n2n1
34 | ≤ 100 | – | COc1ccncc1-c1cnn2ccc(NCCN(C)C(=O)OC(C)C)nc12
35 | – | ≤ 100 | CC(C)(C)OC(=O)N1CCC[C@H]1CCNc1ccc2ncc(-c3ccc(CN)cc3)n2n1
36 | ≤ 100 | – | COCCNc1ccn2ncc(-c3ccc(CN)cc3)c2n1

The remaining lines, values behind:

Row | Compound | IC50 [1] [nM] | IC50 [2] [nM]
37 | COc1cnccc1-c1cnc2ccc(-c3cccc(C(=O)CCC(C)C)c3)nn12 | – | ≤ 100
38 | COc1cnccc1-c1cnc2ccc(-c3cccc(C(=O)NCC(C)C)c3)nn12 | – | ≤ 100
39 | CC(C)CCC(=O)c1cccc(-c2ccc3ncc(-c4ccc(CN)cc4)n3n2)c1 | – | ≤ 100
40 | COc1ncc(F)cc1-c1cnn2ccc(N3CCN(C(=O)OC(C)C)CC3)nc12 | ≤ 100 | –
41 | COCCOC(=O)N1CCN(c2ccn3ncc(-c4cccnc4OC)c3n2)CC1 | ≤ 100 | –
42 | CNC(=O)c1ccc(-c2cnc3ccc(-c4cccc(C(=O)NCC(C)C)c4)nn23)cc1 | – | ≤ 100
43 | CC(C)CNC(=O)c1cncc(-c2ccc3ncc(-c4ccc(CN)cc4)n3n2)c1 | – | ≤ 100
44 | CC(C)CNC(=O)c1cccc(-c2ccc3ncc(-c4ccc(CN)cc4)n3n2)c1 | – | ≤ 100
45 | COc1nc(C)ccc1-c1cnn2ccc(N3CCN(C(=O)OC(C)C)CC3)nc12 | ≤ 100 | –
46 | COc1ncccc1-c1cnn2ccc(N3CCN(C(=O)CC(C)C)CC3)nc12 | ≤ 100 | –
47 | COc1cnccc1-c1cnn2ccc(N3CCN(C(=O)OC(C)C)CC3)nc12 | ≤ 100 | –
48 | CC(C)NC(=O)N1CCN(c2ccc3ncc(-c4ccccc4)n3n2)CC1 | – | ≤ 100
49 | COc1cnccc1-c1cnn2ccc(NCCc3ccccc3OC(F)(F)F)nc12 | ≤ 10 | –
50 | COc1cnccc1-c1cnn2ccc(NCCOC3CCCC3)nc12 | ≤ 100 | –
51 | COc1ccncc1-c1cnn2ccc(NCCc3ccccc3OC(F)(F)F)nc12 | ≤ 100 | –
52 | CN(C)CCOCc1ccc(-c2cnc3ccc(NCCC(C)(C)C)nn23)cc1 | – | ≤ 100
53 | Brc1cnn2ccc(NCCCOC3CCCC3)nc12 | ≤ 1000 | –
54 | CC(C)OC(=O)N1CCC[C@H]1CNc1ccc2ncc(Cl)n2n1 | – | ≤ 100
55 | CCCCNc1ccc2ncc(C(=O)Nc3ccc(C(=O)NCCN(C)C)cc3)n2n1 | – | ≤ 100
56 | CC(C)(C)OC(=O)N1CCC[C@H]1CNc1ccn2ncc(C(F)(F)F)c2n1 | ≤ 100 | –
57 | CC(C)OC(=O)N1CCN(c2ccn3ncc(-c4cccn(C)c4=O)c3n2)CC1 | ≤ 100 | –
58 | CC(C)OC(=O)N1CCN(c2ccn3ncc(-c4cccnc4F)c3n2)CC1 | ≤ 100 | –
59 | NCc1ccc(-c2cnc3ccc(NCC4CCCCC4)nn23)cc1 | – | ≤ 1000
60 | CC(=O)c1cccc(-c2ccc3ncc(-c4ccc(CN)cc4)n3n2)c1 | – | ≤ 100
61 | CCOc1ncccc1-c1cnn2ccc(N3CCN(C(=O)OC(C)C)CC3)nc12 | ≤ 100 | –
62 | CCCCSc1ccc2ncc(-c3ccc(CN)cc3)n2n1 | – | ≤ 1000
63 | CCCCNc1ccc2ncc(-c3ccc(CN)c(F)c3)n2n1 | – | ≤ 1000
64 | COc1cnccc1-c1cnn2ccc(NCCCOC3CCCC3)nc12 | ≤ 100 | –
